Drawing on patent US20260028354A1, “TETRAHYDRONAPHTHALENE DERIVATIVES AS ESTROGEN RECEPTOR DEGRADERS” (REGENT OF THE UNIVERSITY OF MICHIGAN, priority 2022, published 2026), this text covers IC50, Dmax and DC50 for 18 compounds.

Read-outs that look alike come from different tables or passages of the source.

Test [1] deals with CRBN/DDB1 (Homo sapiens (Human), UniProt Q96SW2). Format: binding. The following applies: His tagged CRBN+DDB1, Cy5-labeled Thalidomide probe, one hour; read-out: CRBN HTRF IC50. The procedure: The binding potency was determined using HTRF assay technology (Perkin Elmer). Compounds were serially diluted in DMSO and […] volume was transferred to white 384-well plate.
Chain of CRBN/DDB1 (Q96SW2 whole entry, species assumed): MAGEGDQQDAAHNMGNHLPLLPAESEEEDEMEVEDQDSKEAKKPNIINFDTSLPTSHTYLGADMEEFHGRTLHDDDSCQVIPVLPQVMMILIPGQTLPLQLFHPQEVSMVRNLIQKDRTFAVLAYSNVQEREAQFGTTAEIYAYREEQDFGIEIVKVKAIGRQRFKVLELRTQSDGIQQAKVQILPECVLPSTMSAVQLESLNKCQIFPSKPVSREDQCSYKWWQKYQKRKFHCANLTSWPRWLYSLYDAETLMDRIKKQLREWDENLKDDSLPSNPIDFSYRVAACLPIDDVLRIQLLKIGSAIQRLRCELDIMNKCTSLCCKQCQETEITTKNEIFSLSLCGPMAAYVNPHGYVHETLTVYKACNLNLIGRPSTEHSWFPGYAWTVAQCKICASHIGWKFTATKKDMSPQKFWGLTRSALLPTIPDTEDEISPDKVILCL
Chain of CRBN/DDB1 (Q16531 whole entry partner, species assumed): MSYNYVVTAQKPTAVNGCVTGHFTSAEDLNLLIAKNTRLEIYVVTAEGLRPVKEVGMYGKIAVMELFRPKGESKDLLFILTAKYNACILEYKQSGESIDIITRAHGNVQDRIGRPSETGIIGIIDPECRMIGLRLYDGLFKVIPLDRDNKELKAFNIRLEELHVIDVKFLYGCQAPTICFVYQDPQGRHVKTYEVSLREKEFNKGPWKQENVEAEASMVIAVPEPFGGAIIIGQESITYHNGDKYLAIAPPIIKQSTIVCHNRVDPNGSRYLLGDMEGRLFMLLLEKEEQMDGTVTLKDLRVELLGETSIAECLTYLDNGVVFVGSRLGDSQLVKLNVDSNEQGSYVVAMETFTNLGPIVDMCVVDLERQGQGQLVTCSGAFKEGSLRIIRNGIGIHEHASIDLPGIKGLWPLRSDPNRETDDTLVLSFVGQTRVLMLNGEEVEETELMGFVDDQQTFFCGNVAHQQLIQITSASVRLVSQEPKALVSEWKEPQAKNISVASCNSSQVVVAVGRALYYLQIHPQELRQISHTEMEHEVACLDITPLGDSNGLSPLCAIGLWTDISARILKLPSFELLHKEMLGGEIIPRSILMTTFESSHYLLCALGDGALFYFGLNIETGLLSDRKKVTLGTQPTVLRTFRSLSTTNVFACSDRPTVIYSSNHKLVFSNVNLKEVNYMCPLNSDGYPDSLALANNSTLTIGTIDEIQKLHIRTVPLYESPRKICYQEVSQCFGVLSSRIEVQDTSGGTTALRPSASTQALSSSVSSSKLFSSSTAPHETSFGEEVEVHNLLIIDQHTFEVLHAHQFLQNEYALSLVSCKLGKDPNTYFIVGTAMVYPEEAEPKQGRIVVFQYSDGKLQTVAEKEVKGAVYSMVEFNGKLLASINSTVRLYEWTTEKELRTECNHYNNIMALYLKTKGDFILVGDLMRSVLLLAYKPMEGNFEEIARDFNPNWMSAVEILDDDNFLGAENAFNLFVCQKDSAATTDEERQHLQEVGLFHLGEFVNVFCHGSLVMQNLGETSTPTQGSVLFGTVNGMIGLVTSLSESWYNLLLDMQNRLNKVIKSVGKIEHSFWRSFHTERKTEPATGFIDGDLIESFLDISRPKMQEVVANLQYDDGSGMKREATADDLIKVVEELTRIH
On the technique in general: TR-FRET usually uses a lanthanide donor and a delayed reading to cut background.

Test [2] concerns the target ER in MCF-7 cells (Homo sapiens (Human), UniProt P03372). Description: In-cell Western (ICW) ER degradation assay in MCF-7 cells. Format: cell-based. The following applies: for DC50: MCF-7, ER degradation, read-out: MCF7 DC50.
[3] abbreviates: MCF7, MCF-7, maximal ER degradation, 16 hrs treatment, read-out: MCF7 Dmax.
Where [4] appears, read: MCF7, read-out: MCF7 Dmax, MCF-7, maximal ER degradation, 16 hrs treatment.

Chain of ER in MCF-7 cells (P03372 whole entry): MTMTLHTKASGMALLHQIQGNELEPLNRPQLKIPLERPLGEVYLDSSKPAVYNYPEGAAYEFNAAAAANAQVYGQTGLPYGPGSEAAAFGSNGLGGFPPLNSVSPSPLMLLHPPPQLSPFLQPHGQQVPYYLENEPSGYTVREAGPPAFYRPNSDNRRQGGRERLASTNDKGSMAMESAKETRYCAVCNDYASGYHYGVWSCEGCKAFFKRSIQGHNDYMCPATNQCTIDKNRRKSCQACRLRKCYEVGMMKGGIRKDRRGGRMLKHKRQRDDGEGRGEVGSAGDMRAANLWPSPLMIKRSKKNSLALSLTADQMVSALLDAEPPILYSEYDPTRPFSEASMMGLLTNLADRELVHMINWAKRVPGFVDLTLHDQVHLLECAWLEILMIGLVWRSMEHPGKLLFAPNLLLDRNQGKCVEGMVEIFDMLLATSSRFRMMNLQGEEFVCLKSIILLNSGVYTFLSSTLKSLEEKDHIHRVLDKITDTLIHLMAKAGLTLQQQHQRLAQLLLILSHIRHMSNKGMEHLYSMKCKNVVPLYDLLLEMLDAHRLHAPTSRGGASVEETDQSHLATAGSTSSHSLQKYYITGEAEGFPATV

For `O=C1CC[C@H](N2Cc3c(ccc4c3OC[C@H]3CN(CC5CCC6(CC5)CN(c5ncc([C@@H]7c8ccc(O)cc8CC[C@@H]7c7ccccc7)cn5)C6)CCN43)C2=O)C(=O)N1` (single isomer, unassigned) [Compound A156], the IC50 in test [1] fell in the range of 50 to 500 nM. The Dmax in test [2] (setting [3]) is over 75%. Further, in test [2] (16 hrs treatment), the DC50 is under 1 nM.
The like results for `O=C1CC[C@H](N2Cc3cc4c(cc3C2=O)OC[C@@H]2CN(CC3CCC5(CC3)CN(c3ncc([C@H]6c7ccc(O)cc7CC[C@H]6c6ccccc6)cn3)C5)CCN42)C(=O)N1` (single isomer, unassigned) [Compound A157] were, in that order, 500 to 5000 nM, under 25% and 10 to 100 nM.
In the same order, the values of `O=C1CC[C@H](N2Cc3cc4c(cc3C2=O)OC[C@@H]2CN(CC3CCC5(CC3)CN(c3ncc([C@@H]6c7ccc(O)cc7CC[C@@H]6c6ccccc6)cn3)C5)CCN42)C(=O)N1` (single isomer, unassigned) [Compound A158] are 500 to 5000 nM, 50 to 75% and under 1 nM.
On to `O=C1CC[C@H](N2Cc3c(ccc4c3OC[C@H]3CN(CC5CCC6(CC5)CN(c5ccc([C@H]7c8ccc(O)cc8CC[C@H]7c7ccccc7)cc5F)C6)CCN43)C2=O)C(=O)N1` (single isomer, unassigned) [Compound A159], for which, in test [1], the 50% inhibitory concentration (IC50) is 50 to 500 nM. Also, the maximal degradation (Dmax) in test [2] (setting [3]) was 25 to 50%. In addition, the DC50 in test [2] (16 hrs treatment) was 10 to 100 nM.
In the same order, the values of `COc1cc(N2CC3(CCC(CN4CCN5c6ccc7c(c6OC[C@H]5C4)CN([C@H]4CCC(=O)NC4=O)C7=O)CC3)C2)c(F)cc1[C@@H]1c2ccc(O)cc2CC[C@@H]1c1ccccc1` (single isomer, unassigned) [Compound A163] are 50 to 500 nM, over 75% and 1 to 10 nM.
Consider `COc1cc(N2CC3(CCC(CN4CCN5c6cc7c(cc6OC[C@@H]5C4)C(=O)N([C@H]4CCC(=O)NC4=O)C7)CC3)C2)c(F)cc1[C@@H]1c2ccc(O)cc2CC[C@@H]1c1ccccc1` (single isomer, unassigned) [Compound A164], for which, in test [1], the IC50 was 500 to 5000 nM. Moreover, in test [2] (setting [3]), the greatest degradation seen (Dmax) was over 75%. Also, the DC50 in test [2] (16 hrs treatment) was 1 to 10 nM.
In the same order, the values of `O=C1CCC(NC(=O)c2ccc(C3CCN(CC4CCN(c5ccc([C@@H]6c7ccc(O)cc7CC[C@@H]6c6ccccc6)cc5)CC4)CC3)cn2)C(=O)N1` (stereo partly drawn) [Compound A3, N-(2,6-dioxopiperidin-3-yl)-5-(1-((1-(4-((1R,2S)-6-hydroxy-2-phenyl-1,2,3,4-tetrahydro-naphthalen-1-yl)phenyl)piper-idin-4-yl)methyl)piperidin-4-yl)picolinamide] are over 5000 nM, 25 to 50% and under 1 nM.
In the case of `O=C1CC[C@H](N2Cc3c(ccc4c3OCC43CCN(CC4CCN(c5ccc([C@@H]6c7ccc(O)cc7CC[C@@H]6c6ccccc6)cc5)CC4)CC3)C2=O)C(=O)N1` [Compound A70, (S)-3-(1′-((1-(4-((1R,2S)-6-hydroxy-2-phenyl-1,2,3,4-tetrahydronaphthalen-1-yl)-phenyl)piperidin-4-yl)methyl)-6-oxo-6,8-dihydro-2H,7H-spiro[furo[2,3-e]isoindole-3,4′-piperidin]-7-yl)piperidine-2,6-dione], the IC50 in test [1] was under 50 nM. Also, the Dmax in test [2] (setting [4]) lay in the range of 50 to 75%. For the same compound, the 50% degradation concentration (DC50) in test [2] (16 hrs treatment) is under 1 nM.
In the same order, the values of `O=C1CC[C@H](N2Cc3c(ccc4c3OCC43CCN(C[C@H]4COC5(C4)CN(c4ccc([C@@H]6c7ccc(O)cc7CC[C@@H]6c6ccccc6)cc4)C5)CC3)C2=O)C(=O)N1` [Compound A74, (S)-3-(1′-(((S)-2-(4-((1R,2S)-6-hydroxy-2-phenyl-1,2,3,4-tetrahydronaphthalen-1-yl)phenyl)-5-oxa-2-azaspiro[3,4]octan-7-yl)methyl)-6-oxo-6,8-dihydro-2H,7H-spiro[furo[2,3-e]isoindole-3,4′-piperidin]-7-yl)piperidine-2,6-dione] are under 50 nM, 50 to 75% and under 1 nM.
The like results for `O=C1CC[C@H](N2Cc3c(ccc4c3OCC43CCN(C[C@@H]4COC5(C4)CN(c4ccc([C@@H]6c7ccc(O)cc7CC[C@@H]6c6ccccc6)cc4)C5)CC3)C2=O)C(=O)N1` [Compound A75, (S)-3-(1′-(((R)-2-(4-((1R,2S)-6-hydroxy-2-phenyl-1,2,3,4-tetrahydronaphthalen-1-yl)phenyl)-5-oxa-2-azaspiro[3,4]octan-7-yl)methyl)-6-oxo-6,8-dihydro-2H,7H-spiro[furo[2,3-e]isoindole-3,4′-piperidin]-7-yl)piperidine-2,6-dione] were, in that order, under 50 nM, 50 to 75% and under 1 nM.
Turning to `O=C1CC[C@H](N2Cc3c(ccc4c3OC[C@H]3CN(CCCOC5CN(c6ccc([C@@H]7c8ccc(O)cc8CC[C@@H]7c7ccccc7)cc6)C5)CCN43)C2=O)C(=O)N1` [Compound A78, (S)-3-((R)-7-(3-((1-(4-((1R,2S)-6-hydroxy-2-phenyl-1,2,3,4-tetrahydronaphthalen-1-yl)-phenyl)azetidin-3-yl)oxy)prop-yl)-1-oxo-1,3,5,5a,6,7,8,9-octa-hydro-2H-pyrazino[1′,2′:4,5] [1,4]oxazino[2,3-e]isoindol-2-yl)piperidine-2,6-dione], the IC50 in test [1] was under 50 nM. Besides, in test [2] (setting [3]), the maximal degradation (Dmax) is 50 to 75%. Besides, the 50% degradation concentration (DC50) in test [2] (16 hrs treatment) is under 1 nM.
In the same order, the values of `O=C1CC[C@H](N2Cc3c(ccc4c3OC[C@H]3CN(C5CN(CCOc6ccc([C@@H]7c8ccc(O)cc8CC[C@@H]7c7ccccc7)cc6)C5)CCN43)C2=O)C(=O)N1` [Compound A79, (S)-3-((R)-7-(1-(2-(4-((1R,2S)-6-hydroxy-2-phenyl-1,2,3,4-tetrahydronaphthalen-1-yl)-phenoxy)ethyl)azetidin-3-yl)-1-oxo-1,3,5,5a,6,7,8,9-octa-hydro-2H-pyrazino[1′,2′:4,5] [1,4]oxazino[2,3-e]isoindol-2-yl)piperidine-2,6-dione] are under 50 nM, 50 to 75% and under 1 nM.
As for `O=C1CC[C@H](N2Cc3c(ccc4c3OCC43CCN(C4CN(CCOc5ccc([C@@H]6c7ccc(O)cc7CC[C@@H]6c6ccccc6)cc5)C4)CC3)C2=O)C(=O)N1` [Compound A80, (S)-3-(1′-(1-(2-(4-((1R,2S)-6-hydroxy-2-phenyl-1,2,3,4-tetrahydronaphthalen-1-yl)-phenoxy)ethyl)azetidin-3-yl)-6-oxo-6,8-dihydro-2H,7H-spiro[furo[2,3-c]isoindolc-3,4′-piperidin]-7-yl)piperidine-2,6-dione], the half-maximal inhibitory concentration (IC50) in test [1] was under 50 nM. In addition, the Dmax in test [2] (setting [4]) was in the range of 50 to 75%. For the same compound, the DC50 in test [2] (16 hrs treatment) was under 1 nM.
In the same order, the values of `O=C1CC[C@H](N2Cc3c(ccc4c3OCC43CCN(CC4CC5COCC(C4)N5c4ccc([C@@H]5c6ccc(O)cc6CC[C@@H]5c5ccccc5)cc4)CC3)C2=O)C(=O)N1` (stereo partly drawn) [Compound A81, (3S)-3-(1′-((9-(4-((1R,2S)-6-hydroxy-2-phenyl-1,2,3,4-tetra-hydronaphthalen-1-yl)phenyl)-3-oxa-9-azabicyclo[3.3.1]nonan-7-yl)methyl)-6-oxo-6,8-dihydro-2H,7H-spiro[furo[2,3-e]isoindole-3,4′-piperidin]-7-yl)piperidine-2,6-dione] are under 50 nM, 25 to 50% and under 1 nM.
In the case of `COc1cc([C@H]2c3ccc(O)cc3CC[C@H]2c2ccccc2)c(F)cc1N1CCC2(CC1)CC(CN1CCN3c4ccc5c(c4OC[C@H]3C1)CN([C@H]1CCC(=O)NC1=O)C5=O)C2` [Compound A117, (S)-3-((R)-7-((7-(5-fluoro-4-((1R,2R)-6-hydroxy-2-phenyl-1,2,3,4-tetrahydronaphthalen-1-yl)-2-methoxyphenyl)-7-aza-spiro[3.5]nonan-2-yl)methyl)-1-oxo-1,3,5,5a,6,7,8,9-octa-hydro-2H-pyrazino[1′,2′:4,5] [1,4]oxazino[2,3-e]isoindol-2-yl)piperidine-2,6-dione], the half-inhibitory concentration (IC50) in test [1] is under 50 nM. In test [2] (setting [3]), the Dmax was in the range of 25 to 50%. In addition, the DC50 in test [2] (16 hrs treatment) lay in the range of 10 to 100 nM.
Regarding `COc1cc(N2CCC(CN3CCC(c4ccc(N[C@H]5CCC(=O)NC5=O)c(F)c4)CC3)CC2)c(F)cc1[C@@H]1c2ccc(O)cc2CC[C@@H]1c1ccccc1` [Compound A118, (S)-3-((2-fluoro-4-(1-((1-(2-fluoro-4-((1S,2S)-6-hydroxy-2-phenyl-1,2,3,4-tetrahydronaph-thalen-1-yl)-5-methoxyphenyl)-piperidin-4-yl)methyl)piper-idin-4-yl)phenyl)amino)piper-idine-2,6-dione], the IC50 in test [1] lay within 500 to 5000 nM. In test [2] (setting [3]), the maximal degradation (Dmax) lay in the range of 25 to 50%. Also, in test [2] (16 hrs treatment), the 50% degradation concentration (DC50) was under 1 nM.
Consider `O=C1CC[C@H](N2Cc3c(ccc4c3OCC43CCN(CC4CC5(CCN(c6ncc([C@H]7c8ccc(O)cc8CC[C@H]7c7ccccc7)cn6)CC5)C4)CC3)C2=O)C(=O)N1` [Compound A141, (S)-3-(1′-((7-(5-((1R,2R)-6-hydroxy-2-phenyl-1,2,3,4-tetrahydronaphthalen-1-yl)pyrimidin-2-yl)-7-azaspiro[3.5]nonan-2-yl)methyl)-6-oxo-6,8-dihydro-2H,7H-spiro[furo[2,3-e]isoindole-3,4′-piperidin]-7-yl)piperidine-2,6-dione], for which the half-maximal inhibitory concentration (IC50) in test [1] was under 50 nM. For the same compound, the maximal degradation (Dmax) in test [2] (setting [4]) lay within 50 to 75%. The DC50 in test [2] (16 hrs treatment) was 1 to 10 nM.
The like results for `O=C1CC[C@H](N2Cc3c(ccc4c3OCC43CCN(CC4CC5(CCN(c6ncc([C@@H]7c8ccc(O)cc8CC[C@@H]7c7ccccc7)cn6)CC5)C4)CC3)C2=O)C(=O)N1` [Compound A142, (S)-3-(1′-((7-(5-((1S,2S)-6-hydroxy-2-phenyl-1,2,3,4-tetrahydronaphthalen-1-yl)pyrimidin-2-yl)-7-azaspiro[3.5]nonan-2-yl)methyl)-6-oxo-6,8-dihydro-2H,7H-spiro[furo[2,3-e]isoindole-3,4′-piperidin]-7-yl)piperidine-2,6-dione] were, in that order, under 50 nM, 50 to 75% and under 1 nM.

Usually IC50 stands for the point on the concentration scale where inhibition reaches its midpoint. Usually Dmax stands for the greatest extent of degradation seen. A word on the DC50: it is the concentration giving 50% degradation.
